The target in one data set is T1, human GIP receptor (Homo sapiens, UniProt P48546).
T1 construct: host or cells: HEK-293 cells, transient transfection (Lipofectamine 2000), cDNA in pCMV-Script vector
T1 sequence (P48546 22-466): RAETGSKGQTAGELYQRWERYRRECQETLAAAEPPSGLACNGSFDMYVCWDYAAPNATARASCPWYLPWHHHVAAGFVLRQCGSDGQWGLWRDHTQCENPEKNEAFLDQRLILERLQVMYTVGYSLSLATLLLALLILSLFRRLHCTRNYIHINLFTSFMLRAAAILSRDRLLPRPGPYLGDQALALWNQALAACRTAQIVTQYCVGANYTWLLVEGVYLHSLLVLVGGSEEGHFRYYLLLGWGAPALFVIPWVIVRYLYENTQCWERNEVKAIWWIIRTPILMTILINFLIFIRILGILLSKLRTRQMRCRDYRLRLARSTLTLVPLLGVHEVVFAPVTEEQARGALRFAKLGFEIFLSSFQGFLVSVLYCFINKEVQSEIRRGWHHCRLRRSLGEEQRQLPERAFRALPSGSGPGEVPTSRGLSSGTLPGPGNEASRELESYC
Description: cAMP assay Alternative 2 (Gaddum assay), antagonist potency pKb. Format: cell-based. The conditions noted are these: Table 2C; Gaddum equation, single antagonist dose; HEK-293 hGIPR; read-out: nM (Kb). How it is done:
HEK293 cells were cultured in 10% CO2 and 37° C. in Dulbecco's modified Eagle's medium supplemented with 10% fetal bovine serum, 2 mM glutamine, 180 units/ml penicillin, and 45 µg/ml streptomycin. Transient transfection with hGIPR for the CisBio assay from Table 2C was performed by using Lipofectamine 2000.
Antagonist potency (pKb) was estimated in a functional setting. The estimated pKb values were calculated from the shifts of the agonist-concentration-response curves in the presence of a single dose of GIP peptide antagonists using the Gaddum equation: pKb=log(DR-1)-log(B), where DR (EC50′/EC50) is the dose ratio calculated from EC50 of GIP1-42 obtained in the presence and absence (EC50) of antagonist, and B is the antagonist concentration used.
The in vitro functional assessment of compounds towards human GIP receptor was determined in HEK-293 cells transiently expressing the receptor. On the day of the assay, cells were resuspended in HBSS buffer (Gibco, 14025-50) supplemented with […] (Gibco, 15630-106), 0.1% Pluronic F-68 (Gibco, 24040-032) and 0.1% casein (Sigma, C4765), and plated in 384-well plates at a density of 3500 cells/well. The GIP peptide analogues of the present disclosure were diluted in HBSS buffer supplemented with 20 mM HEPES, 0.1% pluronic, 0.1% casein and 500 uM IBMX. […] Increasing dose of agonist (GIP1-42) was subsequently added to cells and incubated for additionally 30 min at 37° C. The intracellular cAMP was quantitatively determined using the CisBio cAMP Dynamic 2 HTRF Assay Kit. The assay is based on a competition between native cAMP produced by cells and cAMP labeled with the dye d2 for binding to a cryptate labeled antibody. The specific signal (i.e. energy transfer signal) is inversely proportional to the concentration of cAMP in the sample.
The cAMP-d2 conjugate and the antibody anti-cAMP-Cryptate, both diluted in lysis buffer provided in the kit, were added to the cells according to the manufacturer's protocol. The resulting competitive assay was incubated for 60 minutes at room temperature, and the signal was detected by using a PerkinElmer Envision® instrument with excitation at 320 nm and emission at 665 nm and 620 nm. The HTRF ratio (emission at 665 nm/620 nm*10,000) is inversely proportional to the amount of cAMP present and is converted to nM cAMP per well using a cAMP standard curve.

A short description of data set [1]: Physical stability: fibril formation in Thioflavin T (ThT) assay with agitation. The conditions noted are these: 1 mg/ml, TFA, Phosphate (7.4); 25° C., agitation. In kind it is physicochemical. Put shortly:
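Read-out is continuous ThT fluorescence at 486 nm, with lag time taken where signal reaches 10% between pre- and post-transition baselines. Filtered samples (1, 5, 7.5 or 15 mg/ml; pH 7.4 phosphate buffer or NaOH-adjusted water) were stressed at 25° C. by orbital rotation at 300 rpm with one silica bead per well.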

Data set [2] in a line: Solubility by visual inspection of peptide solutions. Format: physicochemical. The conditions noted are these: 1 mg/ml, TFA, Phosphate (7.4). The gist of the method: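 Solubility scored by eye: clear, colorless appearance after gentle mixing. Samples prepared at 1, 5, 7.5 or 15 mg/ml in either pH 7.4 water (NaOH-adjusted) or 50 mM sodium phosphate buffer, pH 7.4.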

Structures are written as SMILES. Starred links: 1 amine or outer side, 2 acyl side, 3 side chain; linkers in the order of their positions; H or OH if unused. Non-standard residues stand in square brackets, D forms with d. Residues, ends and D or L forms follow the SMILES beside them. Groups on a side chain read outwards from the residue. *: point of attachment. C18 diacid = O=C(O)CCCCCCCCCCCCCCCCC(=O)*; C16 diacid = O=C(O)CCCCCCCCCCCCCCC(=O)*; γGlu = O=C(O)[C@H](CCC(=O)[*:2])N[*:1]; Adipoyl = O=C(CCCCC(=O)[*:2])[*:1]; Glutaryl = O=C(CCCC(=O)[*:2])[*:1]; AEEA = NCCOCCOCC(=O)O; Aib = CC(C)(N)C(=O)O

Broadly, the Kb is the equilibrium dissociation constant of an antagonist, usually derived from a functional assay. Regarding `CC[C@H](C)[C@H](NC(=O)[C@H](CCCCN)NC(=O)[C@H](CCC(=O)O)NC(=O)[C@H](CC(C)C)NC(=O)C(C)(C)NC(=O)[C@@H](NC(=O)[C@H](CO)NC(=O)[C@H](Cc1ccc(O)cc1)NC(=O)[C@H](CCC(=O)O)NC(=O)[C@H](CO)NC(=O)[C@@H](NC(=O)[C@H](Cc1ccccc1)NC(=O)[C@@H](NC(=O)CNC(=O)[C@@H](N)CCC(=O)O)[C@@H](C)O)[C@@H](C)CC)[C@@H](C)CC)C(=O)N[C@@H](CCCCNC(=O)COCCOCCNC(=O)COCCOCCNC(=O)CC[C@H](NC(=O)CCCCCCCCCCCCCCCCC(=O)O)C(=O)O)C(=O)N[C@@H](CCC(N)=O)C(=O)N[C@@H](CCC(N)=O)C(=O)N[C@@H](CC(=O)O)C(=O)N[C@@H](Cc1ccccc1)C(=O)N[C@H](C(=O)N[C@@H](CCC(=O)O)C(=O)N[C@@H](Cc1c[nH]c2ccccc12)C(=O)N[C@@H](CC(C)C)C(=O)N[C@@H](CC(C)C)C(=O)N[C@@H](C)C(=O)N[C@@H](CCC(N)=O)C(=O)N[C@@H](CCCCN)C(=O)N1CCC[C@H]1C(=O)N[C@@H](CO)C(=O)N[C@@H](CO)C(=O)NCC(=O)N[C@@H](C)C(=O)N1CCC[C@H]1C(=O)N1CCC[C@H]1C(=O)N1CCC[C@H]1C(=O)N[C@@H](CO)C(=O)O)C(C)C` [AT754] (H-EGTFISEYSI[Aib]LEKIK([AEEA-AEEA-γGlu-C18 diacid])QQDFVEWLLAQKPSSGAPPPS-OH; N-terminus assumed), the Kb at human GIP receptor worked out at 2.2 nM. The “Avr lag time (h)” value in data set [1] is given as “fnd (Fnd = fibrils not detected within experiment time (96 hours) with agitation.)”. In addition, the Visual appearance result in data set [2] is recorded as “Clear”. For `CC[C@H](C)[C@H](NC(=O)[C@H](CO)NC(=O)[C@H](Cc1ccc(O)cc1)NC(=O)[C@H](CCC(=O)O)NC(=O)[C@H](CO)NC(=O)[C@@H](NC(=O)[C@H](Cc1ccccc1)NC(=O)[C@@H](NC(=O)CNC(=O)CCCC(=O)O)[C@@H](C)O)[C@@H](C)CC)C(=O)N[C@@H](C)C(=O)N[C@@H](CC(C)C)C(=O)N[C@@H](CCC(=O)O)C(=O)N[C@@H](CCCCN)C(=O)N[C@H](C(=O)N[C@@H](CCCCNC(=O)COCCOCCNC(=O)COCCOCCNC(=O)CC[C@H](NC(=O)CCCCCCCCCCCCCCCCC(=O)O)C(=O)O)C(=O)N[C@@H](CCC(N)=O)C(=O)N[C@@H](CCC(N)=O)C(=O)N[C@@H](CCC(=O)O)C(=O)N[C@@H](Cc1ccccc1)C(=O)N[C@H](C(=O)N[C@@H](CCC(=O)O)C(=O)N[C@@H](Cc1c[nH]c2ccccc12)C(=O)N[C@@H](CC(C)C)C(=O)N[C@@H](CC(C)C)C(=O)N[C@@H](C)C(=O)N[C@@H](CCC(N)=O)C(=O)N[C@@H](CCCCN)C(=O)N1CCC[C@H]1C(=O)N[C@@H](CO)C(=O)N[C@@H](CO)C(=O)NCC(=O)N[C@@H](C)C(=O)N1CCC[C@H]1C(=O)N1CCC[C@H]1C(=O)N1CCC[C@H]1C(=O)N[C@@H](CO)C(=O)O)C(C)C)[C@@H](C)CC` [AT707] (Glutaryl-GTFISEYSIALEKIK([AEEA-AEEA-γGlu-C18 diacid])QQEFVEWLLAQKPSSGAPPPS-OH), at human GIP receptor, the antagonist dissociation constant (Kb) was 0.28 nM. On the same count and under the same terms, the same measure for `CC[C@H](C)[C@H](NC(=O)[C@H](CCCCN)NC(=O)[C@H](CCC(=O)O)NC(=O)[C@H](CCSC)NC(=O)C(C)(C)NC(=O)[C@@H](NC(=O)[C@H](CO)NC(=O)[C@H](Cc1ccc(O)cc1)NC(=O)[C@H](CCC(=O)O)NC(=O)[C@H](CO)NC(=O)[C@@H](NC(=O)[C@H](Cc1ccccc1)NC(=O)[C@@H](NC(=O)CNC(=O)[C@@H](N)CCC(=O)O)[C@@H](C)O)[C@@H](C)CC)[C@@H](C)CC)C(=O)N[C@@H](CCCCNC(=O)CCCCCCCCCCCCCCC(=O)O)C(=O)N[C@@H](CCC(N)=O)C(=O)N[C@@H](CCC(N)=O)C(=O)N[C@@H](CC(=O)O)C(=O)N[C@@H](Cc1ccccc1)C(=O)N[C@H](C(=O)N[C@@H](CCC(=O)O)C(=O)N[C@@H](Cc1c[nH]c2ccccc12)C(=O)N[C@@H](CC(C)C)C(=O)N[C@@H](CC(C)C)C(=O)N[C@@H](C)C(=O)N[C@@H](CCC(N)=O)C(=O)N[C@@H](CCCCN)C(=O)N1CCC[C@H]1C(=O)N[C@@H](CO)C(=O)N[C@@H](CO)C(=O)NCC(=O)N[C@@H](C)C(=O)N1CCC[C@H]1C(=O)N1CCC[C@H]1C(=O)N1CCC[C@H]1C(=O)N[C@@H](CO)C(=O)O)C(C)C` [AT716] (H-EGTFISEYSI[Aib]MEKIK(C16 diacid)QQDFVEWLLAQKPSSGAPPPS-OH; N-terminus assumed): 0.29 nM; for `CC[C@H](C)[C@H](NC(=O)[C@H](CCCCN)NC(=O)[C@H](CCC(=O)O)NC(=O)[C@H](CC(C)C)NC(=O)C(C)(C)NC(=O)[C@@H](NC(=O)[C@H](CO)NC(=O)[C@H](Cc1ccc(O)cc1)NC(=O)[C@H](CCC(=O)O)NC(=O)[C@H](CO)NC(=O)[C@@H](NC(=O)[C@H](Cc1ccccc1)NC(=O)[C@@H](NC(=O)CNC(=O)CCCCC(=O)O)[C@@H](C)O)[C@@H](C)CC)[C@@H](C)CC)C(=O)N[C@@H](CCCCNC(=O)COCCOCCNC(=O)COCCOCCNC(=O)CC[C@H](NC(=O)CCCCCCCCCCCCCCCCC(=O)O)C(=O)O)C(=O)N[C@@H](CCC(N)=O)C(=O)N[C@@H](CCC(N)=O)C(=O)N[C@@H](CCC(=O)O)C(=O)N[C@@H](Cc1ccccc1)C(=O)N[C@H](C(=O)N[C@@H](CCC(=O)O)C(=O)N[C@@H](Cc1c[nH]c2ccccc12)C(=O)N[C@@H](CC(C)C)C(=O)N[C@@H](CC(C)C)C(=O)N[C@@H](C)C(=O)N[C@@H](CCC(N)=O)C(=O)N[C@@H](CCCCN)C(=O)N1CCC[C@H]1C(=O)N[C@@H](CO)C(=O)N[C@@H](CO)C(=O)NCC(=O)N[C@@H](C)C(=O)N1CCC[C@H]1C(=O)N1CCC[C@H]1C(=O)N1CCC[C@H]1C(=O)N[C@@H](CO)C(=O)O)C(C)C` [AT753] (Adipoyl-GTFISEYSI[Aib]LEKIK([AEEA-AEEA-γGlu-C18 diacid])QQEFVEWLLAQKPSSGAPPPS-OH): 0.23 nM.

The record behind these values is patent US20230416330A1, “Optimized GIP Peptide Analogues” (Antag Therapeutics ApS, priority 2019, published 2023).
